Experimental data reported in patent publication US11866695B2, “Methods and systems and related compositions for mixtures separation with a solid matrix” (CALIFORNIA INSTITUTE OF TECHNOLOGY, priority 2019, dated 2024).
Read-outs that look alike come from different tables or passages of the source.

Experiments:
[1] = test system: qPCR spiked with 5×104 copies λ phage DNA; assay type: biochemical; conditions: 1 μL candidate in 11 μL total; for Avg Cq: N.D. = not detected within 40 cycles; for ΔCq: minus the No additive control
Experimental: (§1) Heating and real-time imaging were performed on the Bio-Rad CFX-96 Touch Real-Time PCR Detection System by heating to 95° C. for 5 min, cycling 40 times between 95° C. for 15 s, 60° C. for 15 s, and 72° C. for 20 s, and taking a melt-curve analysis. For the E. coli DNA dilution experiment, qPCR was run for 60 cycles. Fluorescence readings were taken at the end of each extension step. Quantification cycle (Cq) was determined when the software's automated baseline corrected fluorescence reached 200 RFU.
Criterion 1a was investigated directly by performing qPCR and LAMP reactions. Reactions were spiked with λ phage DNA, diluted up to 10 μL, and an additional 1 μL of different wash buffer candidates was added to a total of 11 μL. […] As an experimental control, a “No Additive” condition was tested, which was a 10 μL reaction with optimized reaction conditions and no inhibitors. To control for the effects of a 1 μL dilution on the reaction, a “Water” condition which was an 11 μL reaction with no inhibitors was also tested.

λ phage DNA = test: Zymo Quick-Viral DNA/RNA kit extraction with additional TPW, qPCR with 2.2× diluted eluent; assay type: biochemical
Experimental: as §1, with “qPCR reactions contained 1× Bio-Rad SsoFast Supermix (1725201, Bio-Rad), PCR primers (IDT) at […] each, and were supplemented with nuclease-free water up to 10 μL. Each 96-well plate (thin-wall clear well, HSP9641, Bio-Rad) was sealed (Microseal B, MSB1001, Bio-Rad) and briefly spun in a Mini Plate Spinner Centrifuge (14-100-141, Fisher Scientific). Heating” for “Heating”
Three different silica-column kits were tested, including: Zymo ZR Viral DNA/RNA Kit (outdated protocol, D7021), Zymo Quick-DNA/RNA Kit (updated protocol, D7021), and the QIAquick PCR Purification Kit (28104, Qiagen). For all silica-column kits, fresh collection tubes were used after each spin and centrifugation speeds were set to 16,000×g. Centrifugation was performed on either an Eppendorf 5415D centrifuge (Eppendorf, Hauppauge, N.Y., USA) or a Thermo Fisher Scientific AccuSpin Micro 17R centrifuge (13-100-676). It was noted that the QIAquick protocol calls for 17,900×g, but instead was run at 16,000×g which was the max speed for the Eppendorf 5415D. For both Zymo kits, 750 μL lysed sample was prepared by mixing 125 μL sample with 125 μL Zymo 2×DNA/RNA Shield and 500 μL Viral DNA/RNA Buffer. For the Zymo ZR Viral DNA/RNA kit, 750 μL lysed sample was centrifuge for 1 min, 500 μL Zymo Viral Wash Buffer was centrifuged for 2 min, and 50 μL nuclease-free water was centrifuged for 30 s into a clean 1.5 mL tube. Optionally, either a dry spin or 300 μL TPW was centrifuged for 2 min in between the Viral Wash Buffer and elution steps. […] For the QIAquick PCR Purification Kit, 125 μL sample was mixed with 625 μL Buffer PB without indicator. 750 μL lysed sample was centrifuged for 30 s, followed by 750 μL Buffer PE for 30 s, a dry spin for 1 min, and 50 μL nuclease-free water for 1 min. Optionally, the dry spin was skipped or the dry spin was replaced with a 300 μL TPW and centrifuged for 1 min.
Of our TPW candidates, 1-undecanol was selected for further evaluation because (i) it was non-inhibitory for qPCR and LAMP reactions and (ii) as an alcohol, 1-undecanol may function similarly to ethanol- or isopropanol-based washes. In these experiments (testing criteria 1b and 2), a commercially purified λ phage DNA sample was first diluted to 2.5×10^6 copies and ran an NA extraction using the Zymo Quick-DNA/RNA Viral Kit. The experimental procedure either followed the manufacturer protocol or added an additional 300 μL 1-undecanol wash in between the Viral Wash Buffer and elution step. Using the manufacturer's protocol, the resulting eluent is approximately 49 μL, but with the added TPW the resulting eluent is approximately 48 μL aqueous phase and ˜1-2 μL 1-undecanol phase. To emphasize any potential inhibitory effects, a low dilution of eluent was used. For qPCR, a 2.2×dilution was achieved by adding 4.5 μL of eluent, 0.5 μL primers, and 5 μL qPCR reaction mix. For LAMP, a 2×dilution was achieved by adding 5 μL eluent, 0.5 μL primers, and 4.5 μL reaction mix. […] The ˜1-2 μL TPW separates from the aqueous phase and adheres to the walls of the tube, making it is easy to use a pipette to capture just the eluent.

[2] = cited from earlier work

SMILES: CCCCCCCCCCCO [1-undecanol]
- Avg Cq [1]: 19.67 cycles
- ΔCq [1]: −0.42 cycles
- Cq (λ phage DNA; 2.2× eluent dilution, 3 columns, 9 samples): 18.46±0.22 cycles
- qPCR reactions amplified (λ phage DNA; 2.2× eluent dilution, amplified/total): all reactions amplified
- average Cq (λ phage DNA; 27 reactions (9 columns)): 19.7±2.5 cycles
- wells with Cq between 18-22 cycles (λ phage DNA; 27 reactions (9 columns)): 25/27
- wells with a delayed Cq (λ phage DNA; 27 reactions (9 columns)): 2/27
- Solubility of TPW Candidate in water [2]: 0.0015 g/100 mL
- Solubility of water in TPW Candidate [2]: 3.4 g/100 g

SMILES: CCO [Ethanol, ethanol]
- Avg Cq [1]: 25.30 cycles
- ΔCq [1]: 5.21 cycles
- Solubility of TPW Candidate in water ([2]; in words): Miscible
- Solubility of water in TPW Candidate ([2]; in words): Miscible
